In patent US20260184710A1, “CASITAS B-LINEAGE LYMPHOMA PROTOONCOGENE B (CBL-B) DEGRADING COMPOUNDS AND ASSOCIATED METHODS OF USE” (Arvinas Operations, Inc., priority 2022, published 2026) one finds Dmax and DC50 data, which are given here for eleven compounds.

Assay [1] addresses T1, Cbl-b (Homo sapiens, UniProt Q13191).
T1 construct: Cbl-b-HiBit KI Jurkat Cells were purchased from Promega; host or cells: Cbl-b-HiBiT knock-in Jurkat cells
Put plainly: Cbl-b Degradation Method A (FACS, anti-Cbl-b antibody staining). Format: cell-based. Conditions: Cbl-b-HiBit KI Jurkat Cells, incubated at least 20 hours; for Dmax: Jurkat, maximum degradation observed, read-out: Cbl-b Degredation Method A Dmax (%); for DC50: half maximal degradation, read-out: Cbl-b Degredation Method A IC50. In short, it runs like this:
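Cbl-b-HiBit KI Jurkat cells treated with compound for at least 20 h at 37 °C, then fixed, permeabilized and stained with anti-Cbl-b antibody plus anti-rabbit AF488 secondary. Cbl-b levels read by FACS; DC50 and Dmax (percent of control) derived.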

The target of assay [2] is T1, Cbl-b. The assay can be described thus: Cbl-b Degradation Method B (Nano-Glo HiBiT lytic detection). Conditions: Cbl-b-HiBit KI Jurkat Cells, incubated at least 6-24 hours; for DC50: half maximal degradation, read-out: Cbl-b Degredation Method B IC50; for Dmax: maximum degradation observed, read-out: Cbl-b Degredation Method B Dmax (%). The format is cell-based. Put shortly: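 Cbl-b-HiBiT knock-in Jurkat cells (20,000/well) were treated after ~24 h plating with an 11-point 1:3 series for 6-24 h at 37° C. Remaining Cbl-b measured by Nano-Glo HiBiT lytic luminescence. DC50 and Dmax expressed as % of control.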

T1 sequence (Q13191 whole entry): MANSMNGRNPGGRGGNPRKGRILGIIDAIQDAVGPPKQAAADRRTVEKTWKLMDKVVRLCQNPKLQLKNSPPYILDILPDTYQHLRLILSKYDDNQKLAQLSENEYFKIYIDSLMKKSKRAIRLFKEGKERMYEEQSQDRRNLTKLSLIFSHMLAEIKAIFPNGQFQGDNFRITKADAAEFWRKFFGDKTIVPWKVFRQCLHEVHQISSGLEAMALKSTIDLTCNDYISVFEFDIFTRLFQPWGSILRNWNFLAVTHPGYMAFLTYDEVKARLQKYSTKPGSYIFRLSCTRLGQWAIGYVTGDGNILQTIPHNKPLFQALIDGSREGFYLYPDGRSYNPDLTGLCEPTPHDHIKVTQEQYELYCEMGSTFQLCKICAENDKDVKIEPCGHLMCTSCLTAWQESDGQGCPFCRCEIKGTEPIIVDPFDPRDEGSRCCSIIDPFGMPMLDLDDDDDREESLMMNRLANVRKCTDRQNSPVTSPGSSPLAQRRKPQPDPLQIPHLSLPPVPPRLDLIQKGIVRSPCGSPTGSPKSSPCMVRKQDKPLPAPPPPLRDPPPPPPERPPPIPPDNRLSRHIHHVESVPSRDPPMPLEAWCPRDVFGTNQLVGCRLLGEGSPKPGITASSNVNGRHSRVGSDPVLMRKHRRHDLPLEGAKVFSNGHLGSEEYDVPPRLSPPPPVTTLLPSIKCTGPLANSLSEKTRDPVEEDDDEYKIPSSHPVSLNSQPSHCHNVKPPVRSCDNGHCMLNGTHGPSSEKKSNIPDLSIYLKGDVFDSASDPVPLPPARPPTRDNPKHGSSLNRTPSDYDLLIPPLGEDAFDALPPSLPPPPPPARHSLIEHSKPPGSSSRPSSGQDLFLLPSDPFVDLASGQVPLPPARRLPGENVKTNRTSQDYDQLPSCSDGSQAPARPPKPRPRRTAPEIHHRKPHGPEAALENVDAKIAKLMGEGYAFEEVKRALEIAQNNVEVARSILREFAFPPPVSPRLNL

In the case of `Cc1cc(N2CCC(O[C@H]3CC[C@H](CN4CCC5(CCN(c6cc7c(c(C(F)(F)F)c6)CN(c6cccc([C@]8(Cc9nncn9C)C[C@@H](C#N)C8)c6)C7=O)C5)C4)CC3)CC2)c(F)c2c1C(=O)N(C1CCC(=O)NC1=O)C2` (stereo partly drawn) [Example 188, (1r,3r)-3-[(4-methyl-4H-1,2,4-triazol-3-yl)methyl]-3-{3-[1-oxo-6-(7-{[(1r,4r)-4-({1-[2-(2,6-dioxopiperidin-3-yl)-4-fluoro-7-methyl-1-oxo-2,3-dihydro-1H-isoindol-5-yl]piperidin-4-yl}oxy)cyclohexyl]methyl}-2,7-diazaspiro[4.4]nonan-2-yl)-4-(trifluoromethyl)-2,3-dihydro-1H-isoindol-2-yl]phenyl}cyclobutane-1-carbonitrile], the Dmax in assay [1] was 35 to 70%. In assay [2], the DC50 was below 5 nM and the Dmax lay in the range of 35 to 70%.

On to `COc1c(N2CCC(O[C@H]3CC[C@H](CN4CCN(Cc5cc6c(c(C(F)(F)F)c5)CN(c5cccc(C7(Cc8nncn8C)COC7)c5)C6=O)CC4)CC3)CC2)ccc2c1CN(C1CCC(=O)NC1=O)C2=O` (stereo partly drawn) [Example 193, 3-[4-methoxy-1-oxo-5-(4-{[(1r,4r)-4-[(4-{[2-(3-{3-[(4-methyl-4H-1,2,4-triazol-3-yl)methyl]oxetan-3-yl}phenyl)-3-oxo-7-(trifluoromethyl)-2,3-dihydro-1H-isoindol-5-yl]methyl}piperazin-1-yl)methyl]cyclohexyl]oxy}piperidin-1-yl)-2,3-dihydro-1H-isoindol-2-yl]piperidine-2,6-dione], for which, in assay [1], the DC50 was below 5 nM and the Dmax is above 70%. In addition, in assay [2], the DC50 is below 5 nM and the Dmax lay in the range of 35 to 70%.

Consider `C[C@H]1CN(C[C@H]2CC[C@@H](OC3CCN(c4ccc5c(c4F)CN(C4CCC(=O)NC4=O)C5=O)CC3)CC2)CCN1Cc1cc2c(c(C(F)(F)F)c1)CN(c1cccc(C3(Cc4nncn4C)COC3)c1)C2=O` (stereo partly drawn) [Example 194, 3-[4-fluoro-1-oxo-5-(4-{[(1r,4r)-4-{[(3S)-3-methyl-4-{[2-(3-{3-[(4-methyl-4H-1,2,4-triazol-3-yl)methyl]oxetan-3-yl}phenyl)-3-oxo-7-(trifluoromethyl)-2,3-dihydro-1H-isoindol-5-yl]methyl}piperazin-1-yl]methyl}cyclohexyl]oxy}piperidin-1-yl)-2,3-dihydro-1H-isoindol-2-yl]piperidine-2,6-dione], for which, in assay [1], the DC50 was below 5 nM and the Dmax is above 70%. In assay [2], the DC50 is below 5 nM and the Dmax was 35 to 70%.

On to `C[C@@H]1CN(C[C@H]2CC[C@H](OC3CCN(c4ccc5c(c4F)CN(C4CCC(=O)NC4=O)C5=O)CC3)CC2)CCN1Cc1cc2c(c(C(F)(F)F)c1)CN(c1cccc(C3(Cc4nncn4C)COC3)c1)C2=O` (stereo partly drawn) [Example 195, 3-[4-fluoro-1-oxo-5-(4-{[(1r,4r)-4-{[(3R)-3-methyl-4-{[2-(3-{3-[(4-methyl-4H-1,2,4-triazol-3-yl)methyl]oxetan-3-yl}phenyl)-3-oxo-7-(trifluoromethyl)-2,3-dihydro-1H-isoindol-5-yl]methyl}piperazin-1-yl]methyl}cyclohexyl]oxy}piperidin-1-yl)-2,3-dihydro-1H-isoindol-2-yl]piperidine-2,6-dione], for which, in assay [1], the DC50 was below 5 nM and the Dmax was above 70%. Further, in assay [2], the DC50 was below 5 nM and the Dmax was in the range of 35 to 70%.

In the case of `CC1CN(Cc2cc3c(c(C(F)(F)F)c2)CN(c2cccc(C4(Cc5nncn5C)COC4)c2)C3=O)CCN1C[C@H]1CC[C@H](OC2CCN(c3ccc4c(c3F)CN(C3CCC(=O)NC3=O)C4=O)CC2)CC1` (stereo partly drawn) [Example 196, 3-[4-fluoro-1-oxo-5-(4-{[(1r,4r)-4-[(2-methyl-4-{[2-(3-{3-[(4-methyl-4H-1,2,4-triazol-3-yl)methyl]oxetan-3-yl}phenyl)-3-oxo-7-(trifluoromethyl)-2,3-dihydro-1H-isoindol-5-yl]methyl}piperazin-1-yl)methyl]cyclohexyl]oxy}piperidin-1-yl)-2,3-dihydro-1H-isoindol-2-yl]piperidine-2,6-dione], in assay [1], the DC50 is below 5 nM and the Dmax was above 70%. Moreover, in assay [2], the DC50 was below 5 nM and the Dmax was 35 to 70%.

`COc1c(N2CCC(O[C@H]3CC[C@H](CN4CCN(Cc5cc6c(c(C(F)(F)F)c5)CN(c5cccc([C@]7(Cc8nncn8C)C[C@@H](C#N)C7)c5)C6=O)CC4)CC3)CC2)ccc2c1CN(C1CCC(=O)NC1=O)C2=O` (stereo partly drawn) [Example 199, (1r,3r)-3-[(4-methyl-4H-1,2,4-triazol-3-yl)methyl]-3-(3-{1-oxo-6-[(4-{[(1r,4r)-4-({1-[2-(2,6-dioxopiperidin-3-yl)-4-methoxy-1-oxo-2,3-dihydro-1H-isoindol-5-yl]piperidin-4-yl}oxy)cyclohexyl]methyl}piperazin-1-yl)methyl]-4-(trifluoromethyl)-2,3-dihydro-1H-isoindol-2-yl}phenyl)cyclobutane-1-carbonitrile]: the DC50 in assay [1] and in assay [2] was below 5 nM each time. Moreover, the Dmax in assay [1] was above 70%; in assay [2] it was 35 to 70%.

In the case of `CC1c2nc(N3CCC(O[C@H]4CC[C@H](CN5CCN(Cc6cc7c(c(C(F)(F)F)c6)CN(c6cccc([C@]8(Cc9nncn9C)C[C@@H](C#N)C8)c6)C7=O)CC5)CC4)CC3)ccc2C(=O)N1C1CCC(=O)NC1=O` (stereo partly drawn) [Example 203, (1r,3r)-3-[(4-methyl-4H-1,2,4-triazol-3-yl)methyl]-3-(3-{1-oxo-6-[(4-{[(1r,4r)-4-({1-[6-(2,6-dioxopiperidin-3-yl)-7-methyl-5-oxo-5H,6H,7H-pyrrolo[3,4-b]pyridin-2-yl]piperidin-4-yl}oxy)cyclohexyl]methyl}piperazin-1-yl)methyl]-4-(trifluoromethyl)-2,3-dihydro-1H-isoindol-2-yl}phenyl)cyclobutane-1-carbonitrile], the DC50 in assay [1] and in assay [2] was below 5 nM throughout. Further, the Dmax in assay [1] and in assay [2] was 35 to 70% each time.

Consider `CC1CN(C[C@H]2CC[C@H](OC3CCN(c4ccc5c(c4F)CN(C4CCC(=O)NC4=O)C5=O)CC3)CC2)CCN1Cc1cc2c(c(C(F)(F)F)c1)CN(c1cccc([C@]3(Cc4nncn4C)C[C@@H](C#N)C3)c1)C2=O` (stereo partly drawn) [Example 204, (1r,3r)-3-(3-{6-[(2-methyl-4-{[(1r,4r)-4-({1-[2-(2,6-dioxopiperidin-3-yl)-4-fluoro-1-oxo-2,3-dihydro-1H-isoindol-5-yl]piperidin-4-yl}oxy)cyclohexyl]methyl}piperazin-1-yl)methyl]-1-oxo-4-(trifluoromethyl)-2,3-dihydro-1H-isoindol-2-yl}phenyl)-3-[(4-methyl-4H-1,2,4-triazol-3-yl)methyl]cyclobutane-1-carbonitrile], for which, in assay [1], the DC50 is below 5 nM and the Dmax is above 70%. Also, in assay [2], the DC50 was below 5 nM and the Dmax lay within 35 to 70%.

Turning to `CC1CN(C[C@H]2CC[C@H](OC3CCN(c4ccc5c(n4)C(C)N(C4CCC(=O)NC4=O)C5=O)CC3)CC2)CCN1Cc1cc2c(c(C(F)(F)F)c1)CN(c1cccc([C@]3(Cc4nncn4C)C[C@@H](C#N)C3)c1)C2=O` (stereo partly drawn) [Example 208, (1r,3r)-3-(3-{6-[(2-methyl-4-{[(1r,4r)-4-({1-[6-(2,6-dioxopiperidin-3-yl)-7-methyl-5-oxo-5H,6H,7H-pyrrolo[3,4-b]pyridin-2-yl]piperidin-4-yl}oxy)cyclohexyl]methyl}piperazin-1-yl)methyl]-1-oxo-4-(trifluoromethyl)-2,3-dihydro-1H-isoindol-2-yl}phenyl)-3-[(4-methyl-4H-1,2,4-triazol-3-yl)methyl]cyclobutane-1-carbonitrile], the figures for the DC50 in assay [1] and in assay [2] were 5 to 50 nM and below 5 nM, respectively. In addition, the Dmax in assay [1] and in assay [2] was 35 to 70% each time.

`CC1CN(C[C@H]2CC[C@H](OC3CCN(c4ccc5c(n4)C(C)N(C4CCC(=O)NC4=O)C5=O)CC3)CC2)CCN1Cc1cc2c(c(C(F)(F)F)c1)CN(c1cccc(C3(Cc4nncn4C)CCC3)c1)C2=O` (stereo partly drawn) [Example 209, 3-[7-methyl-5-oxo-2-(4-{[(1r,4r)-4-[(3-methyl-4-{[2-(3-{1-[(4-methyl-4H-1,2,4-triazol-3-yl)methyl]cyclobutyl}phenyl)-3-oxo-7-(trifluoromethyl)-2,3-dihydro-1H-isoindol-5-yl]methyl}piperazin-1-yl)methyl]cyclohexyl]oxy}piperidin-1-yl)-5H,6H,7H-pyrrolo[3,4-b]pyridin-6-yl]piperidine-2,6-dione]: the DC50 is 5 to 50 nM in assay [1] and below 5 nM in assay [2]. The Dmax in assay [1] and in assay [2] was 35 to 70% each time.

As to `CC1c2nc(N3CCC(O[C@H]4CC[C@H](CN5CCN(Cc6cc7c(c(C(F)(F)F)c6)CN(c6cccc(C8(Cc9nncn9C9CC9)COC8)c6)C7=O)CC5)CC4)CC3)ccc2C(=O)N1C1CCC(=O)NC1=O` (stereo partly drawn) [Example 211, 3-[7-methyl-5-oxo-2-(4-{[(1r,4r)-4-[(4-{[2-(3-{3-[(4-cyclopropyl-4H-1,2,4-triazol-3-yl)methyl]oxetan-3-yl}phenyl)-3-oxo-7-(trifluoromethyl)-2,3-dihydro-1H-isoindol-5-yl]methyl}piperazin-1-yl)methyl]cyclohexyl]oxy}piperidin-1-yl)-5H,6H,7H-pyrrolo[3,4-b]pyridin-6-yl]piperidine-2,6-dione], the DC50 in assay [1] is below 5 nM; in assay [2], above 500 nM. The Dmax in assay [1] is below 35%.

In general, Dmax refers to the greatest extent of degradation seen.
